How the values were obtained:
human CYP24A1 = human CYP24A1 (Homo sapiens, UniProt Q07973); type: in vitro ADME; conditions: pH 7.4
[1] = system: ED-71 O-dehydroxypropylation activity in human small intestine microsomes; type: in vitro ADME; conditions: 1 μmol/L ketoconazole

Row | Relative kcat/Km (human CYP24A1) | SMILES | ED-71 O-dehydroxypropylation activity reduced to (remaining activity) [1] [%]
1 | 1 | C=C1/C(=C\C=C2/CCC[C@]3(C)[C@@H]([C@H](C)CCCC(C)(C)O)CC[C@@H]23)C[C@@H](O)C[C@@H]1O [1α,25(OH)2D3, 1α,25-dihydroxyvitamin D3] | –
2 | – | CC(=O)N1CCN(c2ccc(OCC3COC(Cn4ccnc4)(c4ccc(Cl)cc4Cl)O3)cc2)CC1 (centres unmarked) [ketoconazole] | 37

Source: paper PMC4448988 (Pharmacology Research & Perspectives, 2015)
